Consider 40 compounds from patent publication US10450306B2, “Isoxazole analogs as FXR agonists and methods of use thereof” (Enanta Pharmaceuticals, Inc., priority 2016, dated 2019).

The target of this assay is T1, human FXR (NR1H4) (Homo sapiens, UniProt Q96RI1).
T1 construct: host or cells: CHO (Chinese hamster ovary) reporter cells
T1 sequence (Q96RI1 1-486): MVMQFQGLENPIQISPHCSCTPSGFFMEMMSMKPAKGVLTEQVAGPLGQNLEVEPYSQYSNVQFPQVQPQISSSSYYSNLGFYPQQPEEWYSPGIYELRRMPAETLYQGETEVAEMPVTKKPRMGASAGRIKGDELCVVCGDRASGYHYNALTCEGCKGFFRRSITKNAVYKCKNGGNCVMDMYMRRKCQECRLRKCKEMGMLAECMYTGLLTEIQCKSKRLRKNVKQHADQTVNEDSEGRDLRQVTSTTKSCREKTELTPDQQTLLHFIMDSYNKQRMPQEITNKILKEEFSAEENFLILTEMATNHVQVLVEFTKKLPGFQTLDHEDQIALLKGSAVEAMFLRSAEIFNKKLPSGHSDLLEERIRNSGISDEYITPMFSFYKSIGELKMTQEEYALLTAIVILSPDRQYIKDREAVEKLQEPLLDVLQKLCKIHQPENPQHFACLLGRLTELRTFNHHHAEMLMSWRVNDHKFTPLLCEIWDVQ
In words: Human FXR (NR1H4) Assay: Gal4 promoter driven luciferase reporter transactivation in CHO cells (Indigo Bioscience kit IB00601). As to Efficacy (%): efficacy normalized to CDCA set as 100%. It is filed as cell-based. The settings on record: for Emax: CHO, read-out: Efficacy (%); for EC50: Human FXR (NR1H4) reporter assay, potency ranges. The procedure, abridged: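 CHO reporter cells expressing human FXR with an FXR-responsive promoter-driven luciferase were treated with compound dose series at 0.2% DMSO for 22 h at 37 °C. Luciferase activity was then read by luminescence as the measure of FXR activation.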
Background: In a reporter assay the amount or activity of a reporter protein is the signal.

Regarding `CC1(S(=O)(=O)NC(=O)c2ccc3nc(N4CCC(NCc5c(-c6c(Cl)cccc6Cl)noc5C5CC5)CC4)sc3c2)CC1` [Example 305], the Emax came to 139% and the 50% effective concentration (EC50) fell in the range of 100 to 1000 nM.
`CC1(S(=O)(=O)NC(=O)c2cc(OC(F)F)c3nc(N4C5CCC4CC(NCc4c(-c6c(Cl)cccc6Cl)noc4C4CC4)C5)sc3c2)CC1` [Example 323, 2-((1R,3r,5S)-3-(((5-cyclopropyl-3-(2,6-dichlorophenyl)isoxazol-4-yl)methyl)amino)-8-azabicyclo[3.2.1]octan-8-yl)-4-(difluoromethoxy)-N-((1-methylcyclopropyl)sulfonyl)benzo[d]thiazole-6-carboxamide]: the Emax was determined as 150% and the EC50 is < 1 nM.
In the case of `O=C(NS(=O)(=O)N1CCCCC1)c1cc(OC(F)F)c2nc(N3C4CCC3CC(NCc3c(-c5c(Cl)cccc5Cl)noc3C3CC3)C4)sc2c1` (centres unmarked) [Example 328], the Emax amounted to 146% and the EC50 was < 1 nM.
Turning to `COc1nc2cc(C(=O)NS(=O)(=O)C3(C)CC3)ccc2nc1N1C2CCC1CC(NCc1c(-c3c(Cl)cccc3Cl)noc1C1CC1)C2` (centres unmarked) [Example 342], the Emax came out at 76% and the concentration for a half-maximal effect (EC50) was 1 to 100 nM.
The like results for `O=C(NS(=O)(=O)N1CCCC1)c1cc(F)c2nc(N3C4CCC3CC(NCc3c(-c5c(Cl)cccc5Cl)noc3C3CC3)C4)sc2c1` (centres unmarked) [Example 400-1] were, in that order, 210% and 1 to 100 nM.
Turning to `CC(C)Oc1cc(C(=O)NS(=O)(=O)C2CC2)cc2sc(N3CCC(NCc4c(-c5c(Cl)cccc5Cl)noc4C4CC4)CC3)nc12` [Example 400-3], the Emax turned out to be 104% and the concentration giving a half-maximal response (EC50) was in the range of 1 to 100 nM.
Turning to `CC(C)Oc1cc(C(=O)NS(=O)(=O)C2(C)CC2)cc2sc(N3CCC(NCc4c(-c5c(Cl)cccc5Cl)noc4C4CC4)CC3)nc12` [Example 400-4], the Emax is 97.5% and the EC50 fell in the range of 1 to 100 nM.
`CC(C)Oc1cc(C(=O)NS(=O)(=O)N2CCCC2)cc2sc(N3CCC(NCc4c(-c5c(Cl)cccc5Cl)noc4C4CC4)CC3)nc12` [Example 400-5]: the Emax was determined as 110% and the EC50 was 1 to 100 nM.
On to `CC(C)Oc1cc(C(=O)NS(=O)(=O)N2CCCCC2)cc2sc(N3CCC(NCc4c(-c5c(Cl)cccc5Cl)noc4C4CC4)CC3)nc12` [Example 400-6], for which the Emax was 73.5% and the half-maximal effective concentration (EC50) is 1 to 100 nM.
With `O=C(NS(=O)(=O)N1CCCC1)c1cc(F)c2nc(N3CCC(NCc4c(-c5c(Cl)cccc5Cl)noc4C4CC4)CC3)sc2c1` [Example 400-7], the Emax is 91% and the EC50 was in the range of 1 to 100 nM.
In the case of `O=C(NS(=O)(=O)N1CCCCC1)c1cc(F)c2nc(N3CCC(NCc4c(-c5c(Cl)cccc5Cl)noc4C4CC4)CC3)sc2c1` [Example 400-8], the Emax amounted to 79% and the 50% effective concentration (EC50) is 1 to 100 nM.
For `O=C(NS(=O)(=O)C1CC1)c1cc(F)c2nc(N3CCC(NCc4c(-c5c(Cl)cccc5Cl)noc4C4CC4)CC3)sc2c1` [Example 400-9], in that order: 37.5% and 100 to 1000 nM.
For `CC1(S(=O)(=O)NC(=O)c2cc(F)c3nc(N4CCC(NCc5c(-c6c(Cl)cccc6Cl)noc5C5CC5)CC4)sc3c2)CC1` [Example 400-10], in that order: 68% and 100 to 1000 nM.
Turning to `Cc1cc2nc(N3C4CCC3CC(NCc3c(-c5c(Cl)cccc5Cl)noc3C3CC3)C4)sc2cc1C(=O)NS(=O)(=O)C1(C)CC1` (centres unmarked) [Example 400-11], the Emax was found to be 79.3% and the EC50 is < 1 nM.
Consider `Cc1cc2nc(N3C4CCC3CC(NCc3c(-c5c(Cl)cccc5Cl)noc3C3CC3)C4)sc2cc1C(=O)NS(=O)(=O)N1CCCCC1` (centres unmarked) [Example 400-12], for which the Emax worked out at 115% and the EC50 is < 1 nM.
For the compound `Cc1c(C(=O)NS(=O)(=O)C2(C)CC2)ccc2nc(N3C4CCC3CC(NCc3c(-c5c(Cl)cccc5Cl)noc3C3CC3)C4)sc12` (centres unmarked) [Example 400-13], the Emax stood at 83.3% and the concentration for a half-maximal effect (EC50) lay in the range of 1 to 100 nM.
Regarding `Cc1c(C(=O)NS(=O)(=O)N2CCCCC2)ccc2nc(N3C4CCC3CC(NCc3c(-c5c(Cl)cccc5Cl)noc3C3CC3)C4)sc12` (centres unmarked) [Example 400-14], the Emax came to 119% and the concentration giving a half-maximal response (EC50) is < 1 nM.
The like results for `CCOc1cc(C(=O)NS(=O)(=O)C2(C)CC2)cc2sc(N3C4CCC3CC(NCc3c(-c5c(Cl)cccc5Cl)noc3C3CC3)C4)nc12` (centres unmarked) [Example 400-15] were, in that order, 104% and < 1 nM.
For the compound `CCOc1cc(C(=O)NS(=O)(=O)N2CCCCC2)cc2sc(N3C4CCC3CC(NCc3c(-c5c(Cl)cccc5Cl)noc3C3CC3)C4)nc12` (centres unmarked) [Example 400-16], the Emax was 87.3% and the EC50 was < 1 nM.
On to `CC(C)Oc1cc(C(=O)NS(=O)(=O)C2(C)CC2)cc2sc(N3C4CCC3CC(NCc3c(-c5c(Cl)cccc5Cl)noc3C3CC3)C4)nc12` (centres unmarked) [Example 400-18], for which the Emax came out at 98% and the concentration giving a half-maximal response (EC50) is < 1 nM.
In the case of `CC(C)Oc1cc(C(=O)NS(=O)(=O)N2CCCCC2)cc2sc(N3C4CCC3CC(NCc3c(-c5c(Cl)cccc5Cl)noc3C3CC3)C4)nc12` (centres unmarked) [Example 400-20], the Emax was found to be 43.6% and the concentration giving a half-maximal response (EC50) was in the range of 1 to 100 nM.
`CC1(S(=O)(=O)NC(=O)c2cc3sc(N4C5CCC4CC(NCc4c(-c6c(Cl)cccc6Cl)noc4C4CC4)C5)nc3cc2F)CC1` (centres unmarked) [Example 400-22]: the Emax came out at 83.2% and the 50% effective concentration (EC50) is < 1 nM.
`O=C(NS(=O)(=O)N1CCCCC1)c1cc2sc(N3C4CCC3CC(NCc3c(-c5c(Cl)cccc5Cl)noc3C3CC3)C4)nc2cc1F` (centres unmarked) [Example 400-24]: the Emax came out at 88.2% and the half-maximal effective concentration (EC50) is < 1 nM.
As for `O=C(NS(=O)(=O)C1CC1)c1cnc2nc(N3C4CCC3CC(NCc3c(-c5c(Cl)cccc5Cl)noc3C3CC3)C4)sc2n1` (centres unmarked) [Example 400-25], the Emax was determined as 72% and the EC50 lay in the range of 1 to 100 nM.
For `CC1(S(=O)(=O)NC(=O)c2cnc3nc(N4C5CCC4CC(NCc4c(-c6c(Cl)cccc6Cl)noc4C4CC4)C5)sc3n2)CC1` (centres unmarked) [Example 400-26], in that order: 97.2% and < 1 nM.
For `Cc1cc(C(=O)NS(=O)(=O)C2(C)CC2)cc2sc(N3C4CCC3CC(NCc3c(-c5c(Cl)cccc5Cl)noc3C3CC3)C4)nc12` (centres unmarked) [Example 400-29], in that order: 118% and < 1 nM.
For `CC1(S(=O)(=O)NC(=O)c2cc3sc(N4C5CCC4CC(NCc4c(-c6c(Cl)cccc6Cl)noc4C4CC4)C5)nc3cc2-c2ccccc2)CC1` (centres unmarked) [Example 400-32], in that order: 116% and < 1 nM.
As for `CC1(S(=O)(=O)NC(=O)c2cc3sc(N4C5CCC4CC(NCc4c(-c6c(Cl)cccc6Cl)noc4C4CC4)C5)nc3c3ccccc23)CC1` (centres unmarked) [Example 400-33], the Emax amounted to 91% and the half-maximal effective concentration (EC50) is < 1 nM.
Turning to `CC1(S(=O)(=O)NC(=O)c2cc(C3CC3)c3nc(N4C5CCC4CC(NCc4c(-c6c(Cl)cccc6Cl)noc4C4CC4)C5)sc3c2)CC1` (centres unmarked) [Example 400-35], the Emax stood at 117% and the half-maximal effective concentration (EC50) lay within 1 to 100 nM.
Regarding `O=C(NS(=O)(=O)C1CC1)c1ccc(N2C3CCC2CC(NCc2c(-c4c(Cl)cccc4Cl)noc2C2CC2)C3)nc1` (centres unmarked) [Example 400-37], the Emax worked out at 82.5% and the EC50 lay in the range of 1 to 100 nM.
`O=C(O)c1ccc2nc(N3C4CCC3CC(NCc3c(-c5ccccc5OC(F)(F)F)noc3C3CC3)C4)sc2c1` (centres unmarked) [Example 402]: the Emax came out at 112% and the EC50 was 1 to 100 nM.
`COC(=O)c1cc(F)c2nc(N3C4CCC3CC(NCc3c(-c5ccccc5OC(F)(F)F)noc3C3CC3)C4)sc2c1` (centres unmarked) [Example 403]: the Emax worked out at 61% and the 50% effective concentration (EC50) was 1 to 100 nM.
Turning to `O=C(O)c1cc(F)c2nc(N3C4CCC3CC(NCc3c(-c5ccccc5OC(F)(F)F)noc3C3CC3)C4)sc2c1` (centres unmarked) [Example 404], the Emax was 88% and the EC50 was in the range of 1 to 100 nM.
For the compound `COC(=O)c1cc(OC(C)C)c2nc(N3C4CCC3CC(NCc3c(-c5ccccc5OC(F)(F)F)noc3C3CC3)C4)sc2c1` (centres unmarked) [Example 413], the Emax was determined as 118% and the concentration for a half-maximal effect (EC50) was in the range of 1 to 100 nM.
Take `CC(C)Oc1cc(C(=O)O)cc2sc(N3C4CCC3CC(NCc3c(-c5ccccc5OC(F)(F)F)noc3C3CC3)C4)nc12` (centres unmarked) [Example 414]: the Emax worked out at 121% and the EC50 is < 1 nM.
As for `O=C(O)c1ccc2nc(N3C4CCC3CC(NCc3c(-c5ccccc5OC(F)(F)F)noc3C3CC3)C4)ccc2c1` (centres unmarked) [Example 514], the Emax is 100% and the 50% effective concentration (EC50) fell in the range of 1 to 100 nM.
On to `O=C(O)c1ccc(N2C3CCC2CC(NCc2c(-c4ccccc4OC(F)(F)F)noc2C2CC2)C3)nc1` (centres unmarked) [Example 597], for which the Emax was 83.5% and the EC50 is 1 to 100 nM.
In the case of `O=C(O)c1ccc2nc(N3CCC(NCc4c(-c5ccccc5OC(F)(F)F)noc4C4CC4)CC3)sc2c1` [Example 638], the Emax came out at 107% and the EC50 was 100 to 1000 nM.
Consider `COC(=O)c1cc(OC(C)C)c2nc(N3CCC(NCc4c(-c5ccccc5OC(F)(F)F)noc4C4CC4)CC3)sc2c1` [Example 639], for which the Emax stood at 13% and the half-maximal effective concentration (EC50) was in the range of 100 to 1000 nM.
Take `CC(C)Oc1cc(C(=O)O)cc2sc(N3CCC(NCc4c(-c5ccccc5OC(F)(F)F)noc4C4CC4)CC3)nc12` [Example 640]: the Emax stood at 92.3% and the EC50 was 1 to 100 nM.

What is called EC50 is the concentration giving half of the maximal effect. Low values mean a more potent agent, high ones a less potent agent.
